From patent US20100150844A1, “USE OF 8-QUINOLINOL AND ITS ANALOGS TO TARGET CANCER STEM CELLS” (The Johns Hopkins University, priority 2006, published 2010)
Entries after “also recorded” stand apart in the source; their conditions may differ. Where two headings read alike, the source gives them in different places. Non-standard residues stand in square brackets, D forms with d. Residues, ends and D or L forms follow the SMILES beside them. *: point of attachment. Nle = CCCC[C@H](N)C(=O)O; Cbz = O=C(OCc1ccccc1)*

Assays:
MCF7 cells = experiment: Cell proliferation assay (MTT), MCF7 parental cells; assay type: cell-based, human
Method: (§1) FIG. 2. Susceptibility of MCF7 sphere cells to common anticancer drugs compared with MCF7 cells. Single MCF7 and MCF7 sphere cells were inoculated into 96 well plates at a concentration of 5000 cells per well. After overnight culture, cells were subject to selected clinical drug treatment at the indicated dose for three days. Cell proliferation was determined by MTT assay.
(§2) Cell proliferation assay. […] Each concentration was repeated three times.

MCF7 sphere cells = experiment: Cell proliferation assay (MTT), MCF7 sphere cells; assay type: cell-based, human
Method: as §1
MCF7 and MCF7 sphere cell culture. Human breast cancer cell line MCF7 cells, MDA-MB-435 cells were obtained from ATCC (American Type Culture Collection). Cells were grown in Dulbecco's Modified Eagle's Medium (DMEM) (Invitrogen) supplemented with 10% fetal bovine serum (FBS) (Invitrogen), 100 units/ml penicillin and 100 ug/ml streptomycin (Invitrogen), in a 37° C. incubator containing 5% CO2. To isolate and culture MCF7 sphere cells, SP cells were sorted based on protocol shown below. Sphere cell culture was performed according to published protocol with modifications^28-30. Briefly, single cells were plated in ultralow attachment plates (Corning, N.Y.) at a density of 20,000 viable cells/mL in primary culture and 1000 cells/mL in passages. Cells were grown in a serum-free mammary epithelial growth medium without bovine pituitary extract (MEGM, BioWhittaker), but supplemented with serum substitute B27 (Invitrogen), 20 ng/mL, Epidermal Growth Factor (EGF), 20 ng/mL, and 20 ng/mL basic fibroblast growth factor (bFGF) (BD Biosciences). In order to passage sphere cells, spheres were collected into 15 ml conic tubes and allowed to settle for 15 minutes. Supernatant was removed. Sphere cells were dissociated enzymatically with 0.05% trypsin, 0.5 mM EDTA (Invitrogen) and mechanically by a glass Pasteur pipette. The cells obtained from dissociation were passed through a 40-μm sieve and analyzed microscopically for single cells and subjected to the experiments below.
as §2

MCF7 SP cells = experiment: cells; conditions: Homo sapiens, MCF7, read-out: growth inhibition
Method: (§3) To identify and sort SP and non-SP fractions, cells were washed with phosphate buffered saline (PBS) and detached from the culture dish with trypsin and EDTA, pelleted by centrifugation, and resuspended in 37° C. DMEM containing 2% FBS at 1×10^6 cell/ml. Cell staining was performed according to the protocol originally developed by Goodell et al with slight modification^46. […] Following staining, the cells were spun down and resuspended in Hanks'Balanced Salt Solution (HBSS) (Invitrogen) containing 1 μg/ml propidium iodide and maintained at 4° C. for flow cytometry analysis/sorting. Cell analysis and sorting were performed on a MoFlo cytometer (Dako Cytomation, Fort Collins, Colo. USA) equipped with a Coherent Enterprise II laser emitting MLUV at 351 nm and blue 488 nm lines.
(§4) Cell proliferation assay. To test the sensitivity of MCF7 and MCF7 sphere cells to specific compounds, both MCF7 and MCF7 sphere single cells were seeded at 3×10^4 cells/ml in 96-well plates. After overnight incubation, serial concentrations of tested compounds were added. Each concentration was repeated three times. These cells were incubated in a humidified atmosphere with 5% CO2 for 3 days. […] The medium was removed and formazan was dissolved in DMSO and the optical density was measured at 590 nm using a Bio-assay reader (Bio-Rad, USA).

MCF7 non-SP cells = experiment: cells; conditions: Homo sapiens, MCF7, read-out: growth inhibition
Method: as §3, §4

[1] = tail vein, 20 mg/kg, nude mice
Method: (§5) FIGS. 5A-5F. […] Experiment was performed as described in FIG. 3 and Materials and Methods. B: Structure of NSC125034 and 8Q. […] D: In vivo effect of 8Q (4 mg/Kg) by intratumor injection. […] Mice were treated twice weekly for 3 weeks. Tumor sizes were measured weekly. E: In vivo effect of 8Q (20 mg/Kg) by tail vein injection on two different types of breast cancer cell lines, MCF7 (estrogen dependent, xenograft model reflect the early-stage breast malignancy) and MDA-MB435 (estrogen […], xenograft model reflect the later-stage breast malignancy). Mice were treated twice weekly for 4 weeks. (1) MCF7 xenograft (2) MDA-MB435 xenograft. F: Total body weight of individual mouse in the tail vein injection experiment was determined weekly and the average body weight was plotted.
(§6) Antitumor activity in xenograft model. […] Stock solutions of paclitaxel alone, 8-Quinolinol (8Q) alone or in combination with paclitaxel were prepared by dissolving the drugs in a vehicle solution (EtOH:cremophor, 50:50 v/v). Vehicle or paclitaxel alone, 8Q alone and 8Q in combination with paclitaxel stock solution were mixed with saline (10:90 v/v). For intratumor injection, the 8Q dose was 4 mg/kg, given twice weekly for three weeks. […] The tumor volumes were determined by measuring the length (l) and the width (w) and calculating the volume (V=lw^2/2). […]

MCF7 xenograft = conditions: tail vein injection, 8Q 20 mg/kg twice weekly for 4 weeks, FIG. 5E(1)
Method: as §5, §6

MDA-MB-435 tumor = experiment: Antitumor activity in nude mouse xenograft model, MDA-MB-435; assay type: in vivo
Method: as §5, §6

[2] = in words; solvent DMSO or ethanol
[3] = mouse, U.S. National Toxicology Program acute toxicity studies; cited from earlier work
[4] = rat, U.S. National Toxicology Program acute toxicity studies; cited from earlier work
NF-κB [5] = experiment: Trans-AM NF-κB assay on nuclear extracts of MCF7 sphere cells; assay type: cell-based, human; conditions: 5 μM, 24 hours
Method: (§7) FIGS. 3A-3B. A: Susceptibility of MCF7 and MCF7 sphere cells PI3K pathway inhibitor, rapamycin and NF-κB pathway inhibitors, PTL and PDTC at indicated doses. Experiment was performed as described in FIG. 2 and Materials and Methods. B: Inhibition of NF-κB activity of MCF7 and MCF7 sphere cells after treatment with PTL and PDTC at indicated concentrations. Cells were treated with these compounds at indicated doses for 24 hours. Nuclear extract was prepared from control and treated cells. The quantification of NF-κB activation was performed according to product manual. Nuclear extract preparation. […] After the nuclear lysates were centrifuged, supernatants were collected for quantification of NF-κB activation. The protein concentrations in the supernatants were determined using the BCA protein assay kit (Pierce, Rockford, Ill.). Quantification of NF-κB activation. Trans-AM NF-κB assay, an enzyme-linked immunosorbent assay (ELISA)-based method (Trans-AM NF-κB; Active Motif, Carlsbad, Calif.) was used for NF-κB activity quantification according to the manufacturer's instruction. Briefly, cell nuclear extracts were placed in 96-well plates coated with an oligonucleotide containing the NF-κB consensus sequence, and the presence of active NF-κB was detected by using antibodies specific for p50 subunits that are not complexed to IκB and thus able to bind the consensus sequence. […]

NF-κB [6] = experiment: Trans-AM NF-κB assay on nuclear extracts of MCF7 cells; assay type: cell-based; conditions: Homo sapiens, 24 hours
Method: as §7

[7] = comparison sphere versus parental cells, in words

## Oc1cccc2cccnc12 [8Q, 8-quinolinol]
MCF7 cells; Homo sapiens, MCF7, 72 h, read-out: growth inhibition
  inhibition at 5 µM: 30%
MCF7 sphere cells; Homo sapiens, 72 h, 5 μM, three day treatment, MCF7 sphere cells, read-out: growth inhibition
  inhibition at 5 µM: 86%
MCF7 sphere cells; [7]
  growth inhibition on MCF7 sphere cells compared with MCF7 cells: preferentially inhibit the cancer stem cells over bulk cancer cells
MCF7 SP cells
  inhibition at 5 µM: 84.7%
MCF7 non-SP cells
  inhibition at 5 µM: 71.9%
[1]
  toxicity judged by apparent symptoms and body weight loss: did not show significant toxicity
MCF7 xenograft
  tumor growth inhibition: significantly inhibited tumor growth
MDA-MB-435 tumor; intratumor injection, 8Q 4 mg/kg twice weekly for 3 weeks, FIG. 5D
  tumor growth inhibition: significantly inhibited tumor growth
[2]
  solubility: Ethanol soluble
[3]
  LD50 (oral): 20 g/kg
[4]
  LD50 (oral): 1.2 g/kg

## CCCC[C@@H](C=O)NC(=O)[C@H](CC(C)C)NC(=O)[C@H](CC(C)C)NC(=O)OCc1ccccc1 [GSI1] (Cbz-Leu-Leu-[Nle]-aldehyde)
MCF7 sphere cells; [7]
  growth inhibition on MCF7 sphere cells compared with MCF7 cells: did not inhibit MCF7 sphere cells more than the MCF7 parental cells; also recorded: no higher growth inhibitor ability on MCF7 sphere cells than MCF7 cells

## S=C(S)N1CCCC1 [PDTC, pyrrolidine dithiocarbamate]
MCF7 cells; 1 uM, MCF7 cells
  growth inhibition: no growth inhibition effects
MCF7 sphere cells; Homo sapiens, 1 uM, MCF7 sphere cells, read-out: growth inhibition
  inhibition at 1 µM: 50.8%
MCF7 sphere cells; [7]
  growth inhibition on MCF7 sphere cells compared with MCF7 cells: inhibit MCF7 sphere cells more strongly than the parental MCF7 cells; also recorded: very marked growth inhibition on MCF7 sphere cells compared to MCF7 cells
NF-κB [5]
  decrease of NF-κB activity: 61.8%
NF-κB [6]
  inhibition at 5 µM: 33.6%

## CC1=C2C[C@H]3[C@@H](CC=C4C[C@@H](O)CC[C@@]43C)[C@@H]2CC[C@]12O[C@@H]1C[C@H](C)CN[C@H]1[C@H]2C [cyclopamine]
MCF7 sphere cells
  growth inhibition on MCF7 sphere cells compared with MCF7 cells: did not inhibit MCF7 sphere cells more than the MCF7 parental cells; also recorded: no higher growth inhibitor ability on MCF7 sphere cells than MCF7 cells

## CC(=O)O[C@H]1C(=O)[C@@]2(C)[C@H]([C@H](OC(=O)c3ccccc3)[C@]3(O)C[C@H](OC(=O)[C@H](O)[C@@H](NC(=O)c4ccccc4)c4ccccc4)C(C)=C1C3(C)C)[C@]1(OC(C)=O)CO[C@@H]1C[C@@H]2O [paclitaxel]
MCF7 cells; Homo sapiens, 72 h, 0.25 uM, 3 days, MCF7 parental cells, read-out: growth inhibition
  inhibition at 0.25 µM: 44.5%
MCF7 sphere cells; Homo sapiens, 72 h, 0.25 uM, 3 days, MCF7 sphere cells, read-out: growth inhibition
  inhibition at 0.25 µM: 6.1%
MDA-MB-435 tumor; positive control, paclitaxel 15 mg/kg
  tumor growth inhibition: inhibited the tumor growth as expected

B1: DKK1: Wnt pathway inhibitor (protein, UniProt O94907 32-266, looked up)
Dickkopf-related protein 1: TLNSVLNSNAIKNLPPPLGGAAGHPGSAVSAAPGILYPGGNKYQTIDNYQPYPCAEDEECGTDEYCASPTRGGDAGVQICLACRKRRKRCMRHAMCCPGNYCKNGICVSSDQNHFRGEIEETITESFGNDHSTLDGYSRRTTLSSKMYHTKGQEGSVCLRSSDCASGLCCARHFWSKICKPVLKEGQVCTKHRRKGSHGLEIFQRCYCGEGLSCRIQKDHHQASNSSRLHTCQRH
MCF7 sphere cells; [7]
  growth inhibition on MCF7 sphere cells compared with MCF7 cells: no higher growth inhibitor ability on MCF7 sphere cells than MCF7 cells
MCF7 sphere cells; comparison sphere versus parental cells, in words, listed as DKKI
  growth inhibition on MCF7 sphere cells compared with MCF7 cells: did not inhibit MCF7 sphere cells more than the MCF7 parental cells
